Counter-ions that a name gives are not always drawn.
Key:
[1] = reversed-phase LC retention time (C18, 15 min MeOH gradient); higher = more hydrophobic / later elution
[2] = collision cross section (TIMS, N2 drift gas) of the primary ion; higher = larger gas-phase ion size
[3] = ionization mode: ESI+, ion species: [M+H]+
[4] = ionization mode: ESI-, ion species: [M-H]-

Structure (SMILES)	reversed-phase LC retention time [1, 3] [min]	collision cross section [2, 3] [Å²]	reversed-phase LC retention time [1, 4] [min]	collision cross section [2, 4] [Å²]
CCCCCCOC(=O)c1ccccc1C(=O)OCCCCCC [Di-n-hexyl phthalate]	18.2	195.44		
COC(=O)Nc1nc2ccc(C(=O)c3ccccc3)cc2[nH]1 [Mebendazole]	12.4	175.29	13	173.87
O=C(O)c1cn(C2CC2)c2cc(N3CCNCC3)c(F)cc2c1=O [Ciprofloxacin]	8.22	175.82		
CC(C)(C)C(=O)C(Oc1ccc(Cl)cc1)n1ccnc1 (stereo unspecified) [Climbazole]	13.1	172.6		
CC(CCl)OP(=O)(OC(C)CCl)OC(C)CCl (stereo unspecified) [Tris(1-chloro-2-propyl)phosphate]	14.3	162.58		
C[C@]12CCC(=O)C=C1CC[C@@H]1[C@@H]2[C@@H](O)C[C@]2(C=O)[C@@H](C(=O)CO)CC[C@@H]12 [Aldosterone]	16.5	204.03	11.9	182.17
O=C(O)c1ccccc1Nc1cccc(C(F)(F)F)c1 [Flufenamic acid]			14	159.1
Cc1nn(C)c(Oc2ccccc2)c1/C=N/OCc1ccc(C(=O)OC(C)(C)C)cc1 [Fenpyroximate]	17.5	203.95		
C[C@]12CC(=O)[C@H]3[C@@H](CCC4=CC(=O)CC[C@@]43C)[C@@H]1CC[C@@H]2O [11-Ketotestosterone]	12.6	174.04		
CCC(Cc1ccccc1)(C(=O)c1ccc(N2CCOCC2)cc1)N(C)C (stereo unspecified) [Irgacure 369]	11.3	196.72		
CCOC(=O)NCCOc1ccc(Oc2ccccc2)cc1 [Fenoxycarb]	15.2	180.55		
O=C1c2c(O)cc(O)cc2O[C@H](c2ccc(O)c(O)c2)[C@H]1O [Taxifolin]			5.86	164.44
NS(=O)(=O)c1cc(C(=O)O)c(NCc2ccco2)cc1Cl [Furosemide]	14.3	161.99	9.47	172.55
Cc1cnc2ccc3c(nc(N)n3C)c2n1 [2-Amino-3,8-dimethylimidazo-[4,5-f]quinoxaline (MeIQx)]	7.67	147.79	9.09	147.68
CC1(C)CC(NC(=O)c2cccc(C(=O)NC3CC(C)(C)NC(C)(C)C3)c2)CC(C)(C)N1 [Nylostab S-EED]	8.03	235.31	11.7	232.92
C[C@]12CC[C@@H]3c4ccc(O)cc4CC[C@H]3[C@@H]1CC[C@H]2O [17-alpha-Estradiol]			14.5	173.91
CCC1(C2OC(C3OC(O)(CO)C(C)CC3C)CC2C)CCC(C2(C)CCC3(CC(O)C(C)C(C(C)C(OC)C(C)C(=O)O)O3)O2)O1 (stereo unspecified) [Monensin]			17.5	244.26
Cc1ccc(S(N)(=O)=O)cc1 [p-Toluenesulfonamide]			8.4	134.47
N#Cc1nn(-c2c(Cl)cc(C(F)(F)F)cc2Cl)c(N)c1C(F)(F)F [Fipronil desulfinyl]			15.4	168.16
Oc1ccnc2ccccc12 [4-Hydroxyquinoline]	6.72	124.53	6.7	122.52
CN[C@H]1CC[C@@H](c2ccc(Cl)c(Cl)c2)c2ccccc21 [Sertraline]	13.8	168.55		

Structure (SMILES)	reversed-phase LC retention time [1, 3] [min]	collision cross section [2, 3] [Å²]	reversed-phase LC retention time [1, 4] [min]	collision cross section [2, 4] [Å²]
N#Cc1c(O)c(Cl)c(Cl)c(C#N)c1Cl [Chlorothalonil-4-hydroxy]			11.8	135.03
NC(=O)N1c2ccccc2C(O)C(O)c2ccccc21 (stereo unspecified) [10,11-Dihydro-10,11-dihydroxycarbamazepine]	10.4	157.4		
CC(C1=C(CCN(C)C)Cc2ccccc21)c1ccccn1 (stereo unspecified) [Dimethindene]	10.4	171.03		
CC(C1CC1)C(O)(Cn1cncn1)c1ccc(Cl)cc1 (stereo unspecified) [Cyproconazole_1]	14.4	170.22		
Cc1ccccc1N=C(N)Nc1ccccc1C [1,3-Di-o-tolylguanidine]	9.72	157.64	11	158.32
O=C(Nc1ccccc1-c1ccc(Cl)cc1)c1cccnc1Cl [Boscalid]	14.2	177.19		
CN(C)C(=O)NC1CCCCC1 [3-Cyclohexyl-1,1-dimethylurea]	10.8	139.49		
CCCSP(=O)(OCC)Oc1ccc(Br)cc1Cl (stereo unspecified) [Profenofos]	16.6	169.17		
CCCCCCCCCCCCOS(=O)(=O)O [Dodecyl sulfate]			16.3	166.94
CC1(C)CC(N(C=O)CCCCCCN(C=O)C2CC(C)(C)NC(C)(C)C2)CC(C)(C)N1 [Univul-4050H]	7.4	226.35		
CC(C)(C)Nc1nc(N)nc(O)n1 [2-Hydroxydesethylterbuthylazine]	6.43	142.3	8.55	140.22
CC(C)C1(C)N=C(c2ncccc2C(=O)O)NC1=O (stereo unspecified) [Imazapyr]	8.78	156.96		
CC(=O)CCCCn1c(=O)c2c(ncn2C)n(C)c1=O [Pentoxifylline]	9.78	160.14		
O=C(NC(=O)c1c(F)cccc1F)Nc1ccc(Oc2ccc(C(F)(F)F)cc2Cl)cc1F [Flufenoxuron]	17.4	204.54	17.8	215.68
CCCOC(=O)NCCCN(C)C [Propamocarb]	6.24	142.68		
O=C(NCCc1ncc(C(F)(F)F)cc1Cl)c1ccccc1C(F)(F)F [Fluopyram]	14.7	177.5	15.2	179.2
CC(C)c1c(C(=O)Nc2ccccc2)c(-c2ccccc2)c(-c2ccc(F)cc2)n1CCC(O)CC(O)CC(=O)O (stereo unspecified) [Atorvastatin]	15.1	232.51	14.6	228.86
CC(C)N(C(=O)SCC(Cl)=C(Cl)Cl)C(C)C [Triallate]	17.2	162.33		
Cc1cc(C)nc(NS(=O)(=O)c2ccc(N)cc2)n1 [Sulfamethazine]	7.95	163.66	7.46	165.06
CSc1nnc(C(C)(C)C)c(=O)n1N [Metribuzin]	11.4	147.77		
CN1COCN(Cc2cnc(Cl)s2)/C1=N/[N+](=O)[O-] [Thiamethoxam]	7.66	159.96		

Structure (SMILES)	reversed-phase LC retention time [1, 3] [min]	collision cross section [2, 3] [Å²]	reversed-phase LC retention time [1, 4] [min]	collision cross section [2, 4] [Å²]
C[C@H](CCC(=O)O)[C@H]1CC[C@H]2[C@@H]3[C@H](O)C[C@@H]4C[C@H](O)CC[C@]4(C)[C@H]3CC[C@]12C [Chenodeoxycholic acid]			15.6	209.87
Nc1cnn(-c2ccccc2)c(=O)c1Cl [4-Amino-5-chloro-1-phenyl-6-pyridazone]	9.16	143.41	9.26	141.68
c1ccc2c(c1)[nH]c1ccncc12 [5-Carboline]	7.64	132.8	11.6	129.23
CC(C)(C)c1cc(-n2nc3ccccc3n2)c(O)c(C(C)(C)C)c1 [UV-320]	19.7	188.24	20.9	193.86
Oc1nc(Cl)c(Cl)cc1Cl [3,5,6-Trichloro-2-pyridinol]			11.2	125.88
O=S(=O)(c1ccc(O)cc1)c1ccc(O)cc1 [Bisphenol S]	9.38	155.2	7.15	154.29
Oc1cccc2ccccc12 [1-Naphthol]			14.3	124.62
CCN(CC)C(=O)c1cccc(C)c1 [DEET]	13	142.86		
BrC1CCC(Br)C(Br)CCC(Br)C(Br)CCC1Br (stereo unspecified) [Hexabromocyclododecane (two peaks)]			18.9	178.05
CCC(C)(CC)c1cc(NC(=O)c2c(OC)cccc2OC)on1 [Isoxaben]	14.3	186.76	14.7	186.45
CN(C)c1nc(=O)n(C2CCCCC2)c(=O)n1C	11.7	163.21		
CC(C)Oc1cccc(NC(=O)c2ccccc2C(F)(F)F)c1 [Flutolanil]	14.3	173.43	14.7	176.16
CC1OC(OCC2OC(Oc3c(-c4ccc(O)c(O)c4)oc4cc(O)cc(O)c4c3=O)C(O)C(O)C2O)C(O)C(O)C1O (stereo unspecified) [Rutin]	9.72	233.31	8.1	232.48
CN1C(=O)CC[C@H]1c1cccnc1 [Cotinine]	3.34	143.26		
OCC1OC(OC2(CCl)OC(CCl)C(O)C2O)C(O)C(O)C1Cl (stereo unspecified) [Sucralose]			8.22	174.98
O=S(=O)(O)c1ccc2ccccc2c1 [2-Naphthalenesulfonic acid]			8.49	142.13
CNS(=O)(=O)c1ccccc1 [N-Methylbenzenesulfonamide]			8.4	134.48
COc1ccc2c(c1)[nH]c1c(C)nccc12 [Harmine]	9.71	145.04	13.5	145.84
CCNS(=O)(=O)c1ccccc1C [N-Ethyl-o-toluenesulfonamide]			11.5	143.19
CCc1cccc(C)c1N(C(=O)CCl)C(C)COC (stereo unspecified) [Metolachlor]	15.1	160.17		
O=C(O)C(F)(F)C(F)(F)C(F)(F)C(F)(F)C(F)(F)C(F)(F)C(F)(F)C(F)(F)F [Perfluorononanoic acid]			15.4	164.37
